Biological target: Kv1.3 Mutant 3 (Homo sapiens, UniProt P22001, H451V/V453T)
Assay: TEVC electrophysiology, oocytes expressing Kv1.3 Mutant 3 (Kv1.2 selectivity filter-S6 linker residues)
Format: cell-based
Source text: To test whether the predicted different binding poses of tannic acid to Kv1.2 and Kv1.3 could explain the contrasting functional effects on these two channels, we made three mutant forms of Kv1.3, introducing Kv1.2 residues into the Kv1.3 turret loop (Mutant 1), pore helix (Mutant 2) and selectivity filter-S6 linker (Mutant 3) (Fig. 9A, B). Mutant 2 was nonfunctional (Fig. 9C); the single residue in this mutant was inaccessible to tannic acid as it was deep inside the pore and was not predicted therefore to interact with tannic acid (Fig. 8).
We generated human potassium channel cRNA transcripts with the mMessage mMachine kit (Thermo Fisher Scientific, Waltham, MA, USA) according to manufacturer’s instructions, after vector linearization, from cDNA sub-cloned into expression vectors (pTLNx, pXOOM and pMAX). We injected Xenopus laevis oocytes (Xenoocyte, Dexter, MI, USA) with the channel cRNAs (0.5–10 ng) and incubated the oocytes at 16 °C for 1–4 days prior to electrophysiological recording.
We performed TEVC at 20–23 °C with an OC-725C amplifier (Warner Instruments, Hamden, CT, USA) and pClamp10 software. Chemicals for recording and oocyte storage solutions were from Sigma-Aldrich (St. Louis, MO). Bath solution contained (in mM): 96 NaCl, 4 KCl, 1 MgCl2, 1 CaCl2, 10 HEPES (pH 7.6). Pipettes were 1–2 MΩ resistance when filled with 3 M KCl. We recorded currents in response to voltage pulses between −120 mV or −80 mV and +40 mV at 10 mV intervals from a holding potential of −80 mV, to yield current–voltage relationships and examine activation kinetics. We recorded and analyzed data using Clampfit (Molecular Devices, Sunnyvale, CA, USA) and Graphpad Prism software (GraphPad, San Diego, CA, USA), stating values as mean ± SEM. We calculated the voltage dependence of activation (V0.5) by measuring tail currents at a voltage pulse of −30 mV (Kv7) or −50 mV (Kv1), then fitted the tail current/voltage relationship with a single Boltzmann function:1 g=(A1−A2)/{1+exp[V1/2−V/Vs]}y+A2 where g is the normalized tail conductance, A1 is the initial value at −∞, A2 is the final value at +∞, V1/2 is the half-maximal voltage of activation and Vs the slope factor. We fitted activation and deactivation kinetics with single exponential functions.
For wild-type and mutant Kv1.3 channels we calculated conductance–voltage curves from current–voltage relationships recorded in response to voltage pulses between −80 mV to +40 mV in 10 mV intervals from a holding potential of −80 mV. The conductance was calculated by subtracting the driving force (EK):2 Ek=xlnK^+i/K^+o

Chain of Kv1.3 Mutant 3 (P22001 whole entry H451V/V453T): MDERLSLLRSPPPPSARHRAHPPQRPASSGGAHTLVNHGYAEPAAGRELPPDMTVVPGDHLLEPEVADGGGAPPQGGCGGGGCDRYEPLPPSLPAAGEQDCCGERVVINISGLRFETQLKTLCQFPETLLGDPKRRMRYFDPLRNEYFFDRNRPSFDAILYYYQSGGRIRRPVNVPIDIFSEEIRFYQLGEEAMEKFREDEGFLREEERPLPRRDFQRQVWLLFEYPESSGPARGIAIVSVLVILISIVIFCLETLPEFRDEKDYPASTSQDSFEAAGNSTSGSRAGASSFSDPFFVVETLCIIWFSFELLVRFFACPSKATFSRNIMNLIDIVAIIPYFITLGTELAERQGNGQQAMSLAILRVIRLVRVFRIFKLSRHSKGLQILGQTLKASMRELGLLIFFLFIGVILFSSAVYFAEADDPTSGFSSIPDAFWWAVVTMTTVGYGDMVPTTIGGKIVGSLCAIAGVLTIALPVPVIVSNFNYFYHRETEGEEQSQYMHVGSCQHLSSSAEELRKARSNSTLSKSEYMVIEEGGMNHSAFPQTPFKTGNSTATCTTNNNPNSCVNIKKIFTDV

## tannic acid
0.1 µM tannic acid, control 2.50 ± 0.70
  Slope: 4.01 ± 0.35 mV
0.1 µM tannic acid, control 3.39 ± 0.48
  Current at 0 (mV): 4.20 ± 0.53
0.1 µM tannic acid, control -31.00 ± 0.53
  V0.5 Normalized tail current: -30.20 ± 0.78 mV
1 µM tannic acid
  Current at 0 (mV): 4.44 ± 0.64
  Slope: 3.67 ± 0.41 mV
  V0.5 Normalized tail current: -30.51 ± 0.97 mV
3 µM tannic acid
  Current at 0 (mV): 4.25 ± 0.64
  Slope: 4.85 ± 0.24 mV
  V0.5 Normalized tail current: -30.85 ± 1.34 mV
10 µM tannic acid
  Current at 0 (mV): 2.28 ± 0.38
  Slope: 6.40 ± 0.62 mV
  V0.5 Normalized tail current: -29.05 ± 1.94 mV
30 µM tannic acid
  Current at 0 (mV): 0.88 ± 0.13
  Slope: 14.11 ± 1.75 mV
  V0.5 Normalized tail current: -16.81 ± 5.40 mV
100 µM tannic acid
  Current at 0 (mV): 0.50 ± 0.07
Inhibition dose response
  change of tannic acid IC50 versus wild-type Kv1.3: did not alter
